The values below are quoted from earlier work in US20140012157A1, “Monobody Sensors for Monitoring Neuromuscular Blockade” (priority 2007, published 2014).

The conditions of data set [1]: manufacturer's recommended intubation dose.
For data set [2] the following is noted: PTC of 1 measured; from t=18.8−6.46√PTC.
The test system of data set [3] is isolated cat anterior tibialis and sartorius muscles.

For `C=CC[N+]1([C@H]2C[C@H]3[C@@H]4CC[C@H]5C[C@H](O)[C@@H](N6CCOCC6)C[C@]5(C)[C@H]4CC[C@]3(C)[C@H]2OC(C)=O)CCCC1` [rocuronium], in data set [1], the “2×ED 95 dose (double the dose that is effective for 95% of the population)” value is recorded as 0.6 mg/kg. Further, the “time until return of the TOF” value in data set [2] was 12.34 min.
`COc1cc2c3cc1Oc1cc(ccc1O)C[C@@H]1c4c(cc(OC)c(O)c4Oc4ccc(cc4)C[C@@H]3N(C)CC2)CC[N+]1(C)C` [tubocurarine]: in data set [3], the “receptors that had to be blocked by the antagonist before block was noticeable” value is on record as 76% and the “receptors that had to be blocked for near complete blockade” value is on record as 92%.
